For 43 molecules, AC50, EC50 and IC50 results are on record in ChEMBL document CHEMBL1201862, “PubChem BioAssay data set” (2004).

Among the targets are Cytochrome P450 2D6 (Homo sapiens, UniProt P10635); Cytochrome P450 2C9 (Homo sapiens, UniProt P11712); Cytochrome P450 3A4 (Homo sapiens, UniProt P08684).
For another data set, the target named is Cytochrome P450 2C19 (Homo sapiens, UniProt P33261). As to the kind of experiment: Cytochrome panel assay with activity outcomes. Panel member name: p450-cyp2c19 Compounds with AC50 equal or less than 10 uM are considered active. It counts as functional.
Cytochrome P450 2C19, sequence (P33261 whole entry): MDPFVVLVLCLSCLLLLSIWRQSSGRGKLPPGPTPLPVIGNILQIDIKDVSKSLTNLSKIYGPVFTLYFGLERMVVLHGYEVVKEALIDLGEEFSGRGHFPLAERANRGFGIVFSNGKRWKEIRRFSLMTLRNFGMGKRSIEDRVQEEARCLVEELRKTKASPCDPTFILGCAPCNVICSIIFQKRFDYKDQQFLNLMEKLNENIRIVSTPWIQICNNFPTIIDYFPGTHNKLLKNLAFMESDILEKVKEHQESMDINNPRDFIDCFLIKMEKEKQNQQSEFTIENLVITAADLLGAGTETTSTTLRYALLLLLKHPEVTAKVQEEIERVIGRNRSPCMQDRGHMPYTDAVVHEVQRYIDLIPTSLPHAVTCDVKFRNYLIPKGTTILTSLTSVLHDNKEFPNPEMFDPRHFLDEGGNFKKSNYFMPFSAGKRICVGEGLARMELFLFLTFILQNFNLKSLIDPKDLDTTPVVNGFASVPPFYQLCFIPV
A further data set addresses T1, Cytochrome P450 1A2 (Homo sapiens, UniProt P05177).
T1 sequence (P05177 whole entry): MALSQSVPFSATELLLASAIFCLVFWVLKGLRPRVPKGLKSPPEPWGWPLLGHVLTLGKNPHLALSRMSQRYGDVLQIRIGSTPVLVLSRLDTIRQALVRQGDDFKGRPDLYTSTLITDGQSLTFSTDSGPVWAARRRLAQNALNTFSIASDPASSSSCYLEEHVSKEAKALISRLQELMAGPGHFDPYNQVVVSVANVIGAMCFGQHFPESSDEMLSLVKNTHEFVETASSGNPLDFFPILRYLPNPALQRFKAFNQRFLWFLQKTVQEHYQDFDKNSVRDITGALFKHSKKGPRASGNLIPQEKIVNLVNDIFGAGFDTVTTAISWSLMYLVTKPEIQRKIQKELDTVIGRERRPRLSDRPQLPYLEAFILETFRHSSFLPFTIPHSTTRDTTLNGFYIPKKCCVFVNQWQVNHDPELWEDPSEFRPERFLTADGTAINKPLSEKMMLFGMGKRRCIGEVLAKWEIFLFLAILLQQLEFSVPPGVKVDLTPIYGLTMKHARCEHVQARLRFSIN

Data set [1] can be described thus: luciferase reporter signal suppression in cells – H4 neuroglioma cells, luminescence, dose response (AID 1990). It counts as functional, cell-based.
Data set [2] is described as follows: Luminescence Cell-Based Dose Response HTS to Identify Inhibitors of 5'UTR Stem-Loop Driven Prion Protein mRNA Translation in H4 Neuroglioblastoma Cells. [Related pubchem assays: 1827 (Project Summary), 1813 (Primary HTS)]. It counts as functional.
Data set [3] is described as follows: alpha-synuclein stem-loop luciferase translation blockers – H4 neuroglioma cells, luminescence, confirmation (AID 1988). Type of data set: functional, cell-based.
The target of data set [4] is T2, Heat shock factor protein 1 (Mus musculus, UniProt P38532).
T2 sequence (P38532 whole entry): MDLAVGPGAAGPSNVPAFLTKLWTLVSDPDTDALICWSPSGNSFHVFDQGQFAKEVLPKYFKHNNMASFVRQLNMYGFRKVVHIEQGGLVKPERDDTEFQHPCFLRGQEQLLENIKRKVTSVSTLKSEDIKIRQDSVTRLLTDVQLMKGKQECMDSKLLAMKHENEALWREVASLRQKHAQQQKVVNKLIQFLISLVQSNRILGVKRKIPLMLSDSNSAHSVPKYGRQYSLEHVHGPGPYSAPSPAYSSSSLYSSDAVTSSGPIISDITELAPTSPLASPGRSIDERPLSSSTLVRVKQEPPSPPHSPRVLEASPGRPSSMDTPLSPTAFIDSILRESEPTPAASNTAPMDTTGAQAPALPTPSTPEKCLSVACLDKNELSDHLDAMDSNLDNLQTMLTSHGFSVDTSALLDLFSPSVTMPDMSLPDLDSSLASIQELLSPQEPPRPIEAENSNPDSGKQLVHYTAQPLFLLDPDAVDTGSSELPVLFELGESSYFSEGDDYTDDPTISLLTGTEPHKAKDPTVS
As to the kind of experiment: decrease of HSF1-responsive luciferase luminescence – cell-based, NIH3T3, dose retest, confirmation (AID 2382).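 Note: NIH3T3 fibroblasts with HSF1-driven luciferase reporter stressed by proteasome inhibitor MG132; luminescence from HSF1-driven luciferase expression after 8 hours of MG132 stress.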 Type of data set: functional.

A further data set has as its target T3, Protein skinhead-1 (Caenorhabditis elegans, UniProt P34707).
T3 sequence (P34707 whole entry): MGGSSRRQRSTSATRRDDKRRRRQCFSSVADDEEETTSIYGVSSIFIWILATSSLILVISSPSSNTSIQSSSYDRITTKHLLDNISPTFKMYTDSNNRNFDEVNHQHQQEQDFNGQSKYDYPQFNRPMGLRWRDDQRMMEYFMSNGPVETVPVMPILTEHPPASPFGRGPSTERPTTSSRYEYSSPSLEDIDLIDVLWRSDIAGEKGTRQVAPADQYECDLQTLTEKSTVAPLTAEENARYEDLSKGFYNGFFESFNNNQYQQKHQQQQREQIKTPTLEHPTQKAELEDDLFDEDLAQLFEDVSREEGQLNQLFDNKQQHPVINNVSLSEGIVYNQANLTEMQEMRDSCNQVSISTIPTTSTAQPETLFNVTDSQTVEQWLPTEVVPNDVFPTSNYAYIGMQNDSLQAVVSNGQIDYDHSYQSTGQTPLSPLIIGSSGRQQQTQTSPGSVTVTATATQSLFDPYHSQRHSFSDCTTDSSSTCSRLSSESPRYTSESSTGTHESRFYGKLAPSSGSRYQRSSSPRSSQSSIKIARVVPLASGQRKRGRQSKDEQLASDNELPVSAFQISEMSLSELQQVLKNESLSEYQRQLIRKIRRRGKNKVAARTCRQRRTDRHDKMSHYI
Type of data set: functional.

Data set [5] is described as follows: NIH-3T3 fibroblast cytotoxicity, dose response, cytotoxicity control, cell-based, fluorescence, Alamar Blue, secondary assay (AID 2327).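 Note: NIH-3T3 mouse fibroblasts cultured with fluconazole at 8 µg/mL.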 Type of data set: functional.
Data set [6] is described as follows: Luminescence Cell-Based Dose Retest to Confirm Inhibitors of Cancer Stem Cells. [Related pubchem assays (depositor defined):AID2717, AID2721]. To be noted: Homo sapiens. Type of data set: functional.

Each structure is given as a SMILES string. Values joined by “and” are separate entries in the source; they are usually repeats but may differ in a detail not shown here. Equal entries are not always repeated. Active and inactive are the calls of the source.

Cytochrome P450 2C9, sequence (P11712 whole entry): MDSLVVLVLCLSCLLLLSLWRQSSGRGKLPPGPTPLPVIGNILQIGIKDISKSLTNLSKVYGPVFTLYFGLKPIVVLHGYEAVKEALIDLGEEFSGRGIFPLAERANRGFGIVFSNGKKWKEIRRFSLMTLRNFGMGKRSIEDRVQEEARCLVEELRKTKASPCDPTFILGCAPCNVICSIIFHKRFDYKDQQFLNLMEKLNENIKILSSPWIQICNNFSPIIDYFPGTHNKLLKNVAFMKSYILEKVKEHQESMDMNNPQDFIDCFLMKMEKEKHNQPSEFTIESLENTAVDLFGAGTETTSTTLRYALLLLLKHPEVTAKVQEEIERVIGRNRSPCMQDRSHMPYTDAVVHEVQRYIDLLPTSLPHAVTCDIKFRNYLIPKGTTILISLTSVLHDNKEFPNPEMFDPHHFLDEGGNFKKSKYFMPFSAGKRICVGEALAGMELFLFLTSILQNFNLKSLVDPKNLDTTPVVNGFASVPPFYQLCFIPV
Cytochrome P450 3A4, sequence (P08684 whole entry): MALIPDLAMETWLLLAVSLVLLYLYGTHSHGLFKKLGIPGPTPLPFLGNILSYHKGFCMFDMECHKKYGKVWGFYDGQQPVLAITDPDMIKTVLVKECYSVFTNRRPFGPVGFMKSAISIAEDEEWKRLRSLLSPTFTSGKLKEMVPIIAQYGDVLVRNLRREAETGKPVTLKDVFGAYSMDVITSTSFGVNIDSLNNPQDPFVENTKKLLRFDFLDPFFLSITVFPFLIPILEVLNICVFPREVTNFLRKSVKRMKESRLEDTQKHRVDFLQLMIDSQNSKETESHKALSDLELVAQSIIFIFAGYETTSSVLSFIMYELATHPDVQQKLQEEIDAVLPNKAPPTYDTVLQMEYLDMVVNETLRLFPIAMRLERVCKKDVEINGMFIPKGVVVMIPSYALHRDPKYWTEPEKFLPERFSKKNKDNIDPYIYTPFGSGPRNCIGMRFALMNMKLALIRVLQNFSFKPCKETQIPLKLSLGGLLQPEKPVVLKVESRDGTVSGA
Cytochrome P450 2D6, sequence (P10635 whole entry): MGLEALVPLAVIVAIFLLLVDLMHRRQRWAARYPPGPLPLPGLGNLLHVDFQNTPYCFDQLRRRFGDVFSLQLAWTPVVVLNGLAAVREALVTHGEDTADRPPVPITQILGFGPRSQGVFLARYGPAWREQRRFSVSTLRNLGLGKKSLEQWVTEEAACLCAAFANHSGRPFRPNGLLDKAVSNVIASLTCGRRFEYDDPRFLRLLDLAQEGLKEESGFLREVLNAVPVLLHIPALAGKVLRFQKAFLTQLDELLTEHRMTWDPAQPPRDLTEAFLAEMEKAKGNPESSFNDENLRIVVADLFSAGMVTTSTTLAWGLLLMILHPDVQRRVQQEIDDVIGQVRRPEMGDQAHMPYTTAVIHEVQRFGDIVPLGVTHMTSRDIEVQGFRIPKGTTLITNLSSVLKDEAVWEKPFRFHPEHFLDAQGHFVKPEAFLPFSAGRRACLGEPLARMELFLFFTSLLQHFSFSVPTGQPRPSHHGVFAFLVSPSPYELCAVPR

With `O=C(OCCN1CCOCC1)C1(c2ccccc2)CCCCC1`, the AC50 (commonly the concentration at which the activity in the assay is half-maximal) at Cytochrome P450 2C19 (read-out: AC50) is 6.31 µM (inconclusive) and 10 µM (inconclusive); at Cytochrome P450 2D6, 12.6 µM (inconclusive) and 6.31 µM (inconclusive); at Cytochrome P450 1A2, 31.6 µM (inconclusive); at Cytochrome P450 2C9 it was 10 µM (inconclusive) and 15.8 µM (inconclusive). Consider `Cn1cccc1C(=O)N1CCC2(CCCN(Cc3ccc(C#N)cc3)C2)CC1`, for which the AC50 at Cytochrome P450 1A2 was 12.6 µM (inconclusive); on Cytochrome P450 3A4, 15.8 µM (inconclusive).

For `O=C(Cn1c(-c2cscn2)nc2ccccc21)Nc1cc(F)ccc1F`, the AC50 on Cytochrome P450 2D6 was 22.4 µM (inconclusive). On to `O=C(CSc1c[nH]c2ccccc12)N1CCOCC1`, for which the AC50 at Cytochrome P450 1A2 was 17.8 µM (inconclusive). Regarding `c1ccc(CN2CC[C@@]3(CCCNC3)C2)cc1`, the AC50 on Cytochrome P450 2D6 was 15.8 µM (inconclusive); on Cytochrome P450 3A4, 10 µM (inconclusive). On to `Cc1ccc(-c2nnc(S)n2/N=C/c2cccn2C)cc1`, for which the AC50 at Cytochrome P450 2D6 was 5.01 µM (inconclusive). Consider `COC(=O)CCC(=O)NNC(=O)c1ccc(Br)cc1`, for which, at Cytochrome P450 1A2, the AC50 is 11.2 µM (inconclusive).

With `Nc1nnnn1CCO`, on Cytochrome P450 1A2, the AC50 was 6.31 µM (inconclusive).

Consider `CN(Cc1ccc(-n2cccn2)cc1)C(=O)c1cnn2c1NC(c1ccco1)CC2C(F)(F)F` (configuration not stated), for which the half-maximal effective concentration (EC50) (commonly the midpoint of the concentration-response curve) in data set [1] is > 120 µM (not active); in data set [2], > 120 µM (not active); in [3], 31.5 µM (active). In the case of `O=C(O)c1cc(-c2cccc3ccccc23)nc2ccccc12`, the EC50 in data set [4] is on record as > 195 µM (not active). In addition, the IC50 (as a rule, the concentration that gives 50% inhibition) on Protein skinhead-1 was > 100 µM (inactive).

With `Cc1ccc(S(=O)(=O)N2CCCC(C(=O)NCCCN3CCCCC3C)C2)cc1` (configuration not stated), the concentration at half-maximal activity (AC50) result at Cytochrome P450 2C19 is “inconclusive”; on Cytochrome P450 2D6, 17.8 µM (inconclusive). With `CC(=O)N1CCC2(CCCN(Cc3cc(C(F)(F)F)cc(C(F)(F)F)c3)C2)CC1`, the AC50 is 39.8 µM (inconclusive) at Cytochrome P450 2D6 and 15.8 µM (inconclusive) on Cytochrome P450 3A4. With `Cc1cc(C)n(CC(O)Cn2c(C)c(C)c3ccccc32)n1` (configuration not stated), the IC50 on Protein skinhead-1 was > 100 µM (inactive). Turning to `CCOc1c2ccc(C(=O)NCc3ccc(OC(F)(F)F)cc3)cc2nn1CC`, the AC50 is 39.8 µM (inconclusive) on Cytochrome P450 2C19 (read-out: AC50), 25.1 µM (inconclusive) on Cytochrome P450 2D6, 14.1 µM (inconclusive) at Cytochrome P450 1A2 and 39.8 µM (inconclusive) on Cytochrome P450 2C9.

For the molecule `O=C(NCc1nnc(S)n1-c1ccc(F)cc1)c1ccc(S(=O)(=O)N2CCOCC2)cc1`, on Protein skinhead-1, the IC50 is > 100 µM (inactive). Take `O=C1C=CC(=O)c2c1ccc1c2ccc2ccccc21`: the AC50 on Cytochrome P450 2D6 is 5.01 µM (inconclusive). Regarding `O=C1COc2ccc(OCc3ccc(F)cc3)cc21`, the AC50 at Cytochrome P450 1A2 is 7.08 µM (inconclusive). Regarding `Cc1ccccc1-c1cncnc1Nc1ccccc1`, the AC50 on Cytochrome P450 2D6 is 39.8 µM (inconclusive).

For `O=C(NCC1CCCO1)c1nn2c(c1Cl)NC(c1ccc(F)cc1)CC2C(F)(F)F` (configuration not stated), the half-maximal activity concentration (AC50) on Cytochrome P450 1A2 is 12.6 µM (inconclusive); on Cytochrome P450 3A4, 14.1 µM (inconclusive).

For the molecule `Cc1ccc(CSc2nc3c(c(=O)[nH]c(=O)n3C)n2CCC(C)C)cc1`, the results for the EC50 in [1], in data set [2] and in data set [3] were 24.8 µM (active), 19.4 µM (active) and 16.2 µM (active), respectively. `O=C(Nc1ccccc1N1CCOCC1)c1ccc(S(=O)(=O)NCc2ccco2)cc1`: the EC50 in data set [5] was > 150 µM (inactive). As for `CCNc1ncc2nc(-c3cccc(C#N)c3)c(=O)n(C)c2n1`, the results for the AC50 at Cytochrome P450 2D6 and on Cytochrome P450 3A4 were 2 µM (inconclusive) and 31.6 µM (inconclusive), respectively.

In the case of `CC(=O)Nc1nnc(CCN2CCCCC2)s1`, the concentration at half-maximal activity (AC50) result was “inconclusive” at Cytochrome P450 2C19 and 1.26 µM (inconclusive) at Cytochrome P450 2D6.

`N#C/C=C1\n2c(nc3ccccc32)OC12CCCCC2`: the EC50 in [1], in [2] and in data set [3] was > 120 µM (not active) each time.

For `CCN1C(=O)/C(=C\c2ccncc2)S/C1=N\c1ccc(C)c(C)c1`, the AC50 in [6] was 3.77 µM (active). In the case of `c1ccc(CSc2nnc(-c3cccs3)o2)cc1`, at Protein skinhead-1, the IC50 was 30.2 µM (active). On to `Cc1nn(-c2ccccc2)c2nc(N)c(C#N)c(-c3ccc(C(C)(C)C)cc3)c12`, for which the AC50 in data set [6] was 2.14 µM (active).

`COc1ccc(OC)c(-c2csc(N(CC3CCCO3)C(=O)C3CCCCC3)n2)c1` (configuration not stated): in [6], the AC50 was 3.5 µM (active). Turning to `CCc1nnc(NC(=O)CSc2nnc(COc3cccc(C)c3)o2)s1`, the IC50 at Protein skinhead-1 is > 100 µM (inactive).

For the molecule `O=C(CSc1nnnn1-c1ccccc1)NCc1cccs1`, the AC50 on Cytochrome P450 1A2 was 31.6 µM (inconclusive). Consider `Cc1cnc(CNc2ncnc3ccc(-c4ccccc4C(F)(F)F)cc23)cn1`, for which the AC50 on Cytochrome P450 2C19 (read-out: AC50) is 20 µM (inconclusive); at Cytochrome P450 2D6, 25.1 µM (inconclusive). With `O=C(COC(=O)c1cccc(S(=O)(=O)N2CCOCC2)c1)Nc1nc(-c2ccccc2Cl)cs1`, the results for the AC50 on Cytochrome P450 1A2 and at Cytochrome P450 3A4 were 8.91 µM (inconclusive) and 11.2 µM (inconclusive), respectively. As to `Cc1c(C)n(C)c2ccc(C(=O)NCCN3CCOCC3)cc12`, on Protein skinhead-1, the IC50 is > 100 µM (inactive). For `COc1ccc(C(=O)N2CCC3(CC2)CN(Cc2ccc(C#N)cc2)C3)cc1`, the AC50 on Cytochrome P450 2D6 is 12.6 µM (inconclusive); on Cytochrome P450 3A4 it was 0.631 µM (inconclusive). In the case of `O=C(NC1(C(F)(F)F)NC(=O)N(Cc2cccnc2)C1=O)c1ccccc1` (configuration not stated), the concentration for a half-maximal effect (EC50) in data set [1], in data set [2] and in data set [3] was > 120 µM (not active) each time. Moreover, the AC50 on Cytochrome P450 3A4 was 0.891 µM (inconclusive); on Cytochrome P450 2C9, 17.8 µM (inconclusive).

`COc1cccc(Nc2ncc3nc(-c4cn(C)c5ccccc45)c(=O)n(CCC#N)c3n2)c1`: the AC50 at Cytochrome P450 1A2 was 20 µM (inconclusive); at Cytochrome P450 3A4, 1.58 µM (inconclusive). `CCN(CC)S(=O)(=O)c1cccc(-c2nnc(SCC(=O)c3cc(C)n(C4CC4)c3C)o2)c1`: on Protein skinhead-1, the IC50 is > 100 µM (inactive). In the case of `C[C@H](N)C1CCC(C(=O)Nc2ccncc2)CC1` (some centres not stated), the AC50 at Cytochrome P450 2D6 and at Cytochrome P450 3A4 was 15.8 µM (inconclusive) throughout. On to `CCn1c(SCC(=O)Nc2ccc(NC(=O)c3cccs3)cc2)nnc1-c1cccnc1`, for which the IC50 on Protein skinhead-1 is > 100 µM (inactive). For `Brc1ccc(CSc2nnc(-c3cccnc3)o2)cc1`, the IC50 on Protein skinhead-1 was 54.5 µM (inactive).

On to `COc1cc(C(=O)N/N=C(\Cc2ncc[nH]2)c2ccccc2)cc(OC)c1OC`, for which the AC50 in [6] was 2.89 µM (active). As to `CN(C)c1ccc(/N=C/c2cccn2C)cc1`, the EC50 in data set [5] is 25.9 µM (active). Turning to `CC1(C)C[C@H](O)[C@]2(CO)[C@H](O)C[C@]3(C)C(=CCC4[C@@]5(C)CC[C@H](O)C(C)(C)C5CC[C@]43C)[C@@H]2C1` (some centres not stated), the AC50 in data set [6] is 1.97 µM (active).
